Where only a bound is given, the exact number is not on record here.

This test deals with breast cancer cell line MX-1. The test is described as follows: MX-1 cell line proliferation assay, Method A. Format: cell-based. To be noted: Homo sapiens, MX1; MX-1 cells, 96-well, 72 hours, Cell Titer Glo; read-out: Cellular proliferation: EC50 Method A. On the procedure:
The impact of compounds of the Examples on cancer cell proliferation was determined using the breast cancer cell line MX-1 (ATCC) in a 3-day proliferation assay and the data are reported in Table 1.
MX-1 cells were maintained in RPMI 1640 medium (Sigma) supplemented with 10% FBS at 37° C. and an atmosphere of 5% CO2. For compound testing, MX-1 cells were plated in 96-well black bottom plates at a density of 5000 cells/well in 90 μL of culture media and incubated at 370 overnight to allow cell adhesion and spreading. Compound dilution series were prepared in DMSO via a 3-fold serial dilution from 3 mM to 0.1 μM. The DMSO dilution series were then diluted 1:100 in phosphate buffered saline, and 10 μL of the resulted solution were added to the appropriate wells of the MX-1 cell plate. The final compound concentrations in the wells were 3, 1, 0.3, 0.1, 0.03, 0.01, 0.003, 0.001, 0.0003 and 0.0001 μM.
Luminescence readings from the Cell Titer Glo assay were normalized to the DMSO treated cells and analyzed using the GraphPad Prism software with sigmoidal curve fitting to obtain ECs50s. The minimum significant ratio (MSR) was determined to evaluate assay reproducibility (Eastwood et al., (2006) J Biomol Screen, 11: 253-261).
Background: Cellular ATP, detected with luciferase, serves as a proxy for viable cell number.
In the case of `CC(=O)N1CCN(C(=O)c2cccc(Oc3ccc(S(C)(=O)=O)cc3-c3cn(C)c(=O)c4[nH]ccc34)c2)CC1` [Example 30, 4-[2-{3-[(4-acetylpiperazin-1-yl)carbonyl]phenoxy}-5-(methylsulfonyl)phenyl]-6-methyl-1,6-dihydro-7H-pyrrolo[2,3-c]pyridin-7-one], the EC50 was greater than 1000 nM.

On to `Cn1cc(-c2cc(S(C)(=O)=O)ccc2Oc2cccc(C(=O)N3CCC(C(F)(F)F)CC3)c2)c2cc[nH]c2c1=O` [Example 31, 6-methyl-4-[5-(methylsulfonyl)-2-(3-{[4-(trifluoromethyl)piperidin-1-yl]carbonyl}phenoxy)phenyl]-1,6-dihydro-7H-pyrrolo[2,3-c]pyridin-7-one], for which the EC50 was 443 nM.

As to `CN(C)CCNC(=O)c1cccc(Oc2ccc(S(C)(=O)=O)cc2-c2cn(C)c(=O)c3[nH]ccc23)c1` [Example 33, N-[2-(dimethylamino)ethyl]-3-[2-(6-methyl-7-oxo-6,7-dihydro-1H-pyrrolo[2,3-c]pyridin-4-yl)-4-(methylsulfonyl)phenoxy]benzamide], the EC50 is greater than 1000 nM.

As for `Cn1cc(-c2cc(S(C)(=O)=O)ccc2Oc2cccc(C(=O)NC[C@H]3CCCO3)c2)c2cc[nH]c2c1=O` [Example 34, 3-[2-(6-methyl-7-oxo-6,7-dihydro-1H-pyrrolo[2,3-c]pyridin-4-yl)-4-(methylsulfonyl)phenoxy]-N-[(2R)-tetrahydrofuran-2-ylmethyl]benzamide], the EC50 turned out to be 155 nM.

For `Cn1cc(-c2cc(S(C)(=O)=O)ccc2Oc2cccc(C(=O)NCCN3CCCC3)c2)c2cc[nH]c2c1=O` [Example 35, 3-[2-(6-methyl-7-oxo-6,7-dihydro-1H-pyrrolo[2,3-c]pyridin-4-yl)-4-(methylsulfonyl)phenoxy]-N-[2-(pyrrolidin-1-yl)ethyl]benzamide], the EC50 was determined as 406 nM.

In the case of `Cn1cc(-c2cc(S(C)(=O)=O)ccc2Oc2cccc(C(=O)NCc3cc(F)cc(F)c3)c2)c2cc[nH]c2c1=O` [Example 36, N-(3,5-difluorobenzyl)-3-[2-(6-methyl-7-oxo-6,7-dihydro-1H-pyrrolo[2,3-c]pyridin-4-yl)-4-(methylsulfonyl)phenoxy]benzamide], the EC50 came to 255 nM.

`Cn1cc(-c2cc(S(C)(=O)=O)ccc2Oc2cccc(NS(=O)(=O)Cc3ccccc3)c2)c2cc[nH]c2c1=O` [Example 38, N-{3-[2-(6-methyl-7-oxo-6,7-dihydro-1H-pyrrolo[2,3-c]pyridin-4-yl)-4-(methylsulfonyl)phenoxy]phenyl}-1-phenylmethanesulfonamide]: the EC50 was 103 nM.

Take `COc1ccc(S(=O)(=O)Nc2cccc(Oc3ccc(S(C)(=O)=O)cc3-c3cn(C)c(=O)c4[nH]ccc34)c2)cc1` [Example 39, 4-methoxy-N-{3-[2-(6-methyl-7-oxo-6,7-dihydro-1H-pyrrolo[2,3-c]pyridin-4-yl)-4-(methylsulfonyl)phenoxy]phenyl}benzenesulfonamide]: the EC50 worked out at 97.4 nM.

With `Cn1cc(-c2cc(S(C)(=O)=O)ccc2Oc2cccc(NS(=O)(=O)c3cccc(F)c3)c2)c2cc[nH]c2c1=O` [Example 40, 3-fluoro-N-{3-[2-(6-methyl-7-oxo-6,7-dihydro-1H-pyrrolo[2,3-c]pyridin-4-yl)-4-(methylsulfonyl)phenoxy]phenyl}benzenesulfonamide], the EC50 turned out to be 143 nM.

Turning to `COc1cccc(S(=O)(=O)Nc2cccc(Oc3ccc(S(C)(=O)=O)cc3-c3cn(C)c(=O)c4[nH]ccc34)c2)c1` [Example 42, 3-methoxy-N-{3-[2-(6-methyl-7-oxo-6,7-dihydro-1H-pyrrolo[2,3-c]pyridin-4-yl)-4-(methylsulfonyl)phenoxy]phenyl}benzenesulfonamide], the EC50 was 157 nM.

Turning to `Cn1cc(-c2cc(S(C)(=O)=O)ccc2Oc2cccc(NS(=O)(=O)c3ccc([N+](=O)[O-])cc3)c2)c2cc[nH]c2c1=O` [Example 43, N-{3-[2-(6-methyl-7-oxo-6,7-dihydro-1H-pyrrolo[2,3-c]pyridin-4-yl)-4-(methylsulfonyl)phenoxy]phenyl}-4-nitrobenzenesulfonamide], the EC50 worked out at 451 nM.

In the case of `CC(=O)c1ccc(S(=O)(=O)Nc2cccc(Oc3ccc(S(C)(=O)=O)cc3-c3cn(C)c(=O)c4[nH]ccc34)c2)cc1` [Example 44, 4-acetyl-N-{3-[2-(6-methyl-7-oxo-6,7-dihydro-1H-pyrrolo[2,3-c]pyridin-4-yl)-4-(methylsulfonyl)phenoxy]phenyl}benzenesulfonamide], the EC50 is 391 nM.

As to `CC(C)c1ccc(S(=O)(=O)Nc2cccc(Oc3ccc(S(C)(=O)=O)cc3-c3cn(C)c(=O)c4[nH]ccc34)c2)cc1` [Example 46, N-{3-[2-(6-methyl-7-oxo-6,7-dihydro-1H-pyrrolo[2,3-c]pyridin-4-yl)-4-(methylsulfonyl)phenoxy]phenyl}-4-(propan-2-yl)benzenesulfonamide], the EC50 was determined as 43.1 nM.

Consider `Cn1cc(-c2cc(S(C)(=O)=O)ccc2Oc2cccc(NS(=O)(=O)c3cccc(OC(F)F)c3)c2)c2cc[nH]c2c1=O` [Example 48, 3-(difluoromethoxy)-N-{3-[2-(6-methyl-7-oxo-6,7-dihydro-1H-pyrrolo[2,3-c]pyridin-4-yl)-4-(methylsulfonyl)phenoxy]phenyl}benzenesulfonamide], for which the EC50 was found to be 172 nM.

Turning to `Cn1cc(-c2cc(S(C)(=O)=O)ccc2Oc2cccc(NS(=O)(=O)C3CC3)c2)c2cc[nH]c2c1=O` [Example 49, N-{3-[2-(6-methyl-7-oxo-6,7-dihydro-1H-pyrrolo[2,3-c]pyridin-4-yl)-4-(methylsulfonyl)phenoxy]phenyl}cyclopropanesulfonamide], the EC50 was found to be 73.8 nM.

In the case of `Cc1cccc(S(=O)(=O)Nc2cccc(Oc3ccc(S(C)(=O)=O)cc3-c3cn(C)c(=O)c4[nH]ccc34)c2)c1` [Example 50, 3-methyl-N-{3-[2-(6-methyl-7-oxo-6,7-dihydro-1H-pyrrolo[2,3-c]pyridin-4-yl)-4-(methylsulfonyl)phenoxy]phenyl}benzenesulfonamide], the EC50 is 40.5 nM.

For the compound `Cn1cc(-c2cc(S(C)(=O)=O)ccc2Oc2cccc(NS(=O)(=O)c3cccc([N+](=O)[O-])c3)c2)c2cc[nH]c2c1=O` [Example 51, N-{3-[2-(6-methyl-7-oxo-6,7-dihydro-1H-pyrrolo[2,3-c]pyridin-4-yl)-4-(methylsulfonyl)phenoxy]phenyl}-3-nitrobenzenesulfonamide], the EC50 was greater than 1000 nM.

With `Cc1cc(F)ccc1S(=O)(=O)Nc1cccc(Oc2ccc(S(C)(=O)=O)cc2-c2cn(C)c(=O)c3[nH]ccc23)c1` [Example 52, 4-fluoro-2-methyl-N-{3-[2-(6-methyl-7-oxo-6,7-dihydro-1H-pyrrolo[2,3-c]pyridin-4-yl)-4-(methylsulfonyl)phenoxy]phenyl}benzenesulfonamide], the EC50 turned out to be 38.6 nM.

Take `Cn1cc(-c2cc(S(C)(=O)=O)ccc2Oc2cccc(NS(=O)(=O)c3ccc(S(C)(=O)=O)cc3)c2)c2cc[nH]c2c1=O` [Example 54, N-{3-[2-(6-methyl-7-oxo-6,7-dihydro-1H-pyrrolo[2,3-c]pyridin-4-yl)-4-(methylsulfonyl)phenoxy]phenyl}-4-(methylsulfonyl)benzenesulfonamide]: the EC50 is greater than 1000 nM.

`Cn1cc(-c2cc(S(C)(=O)=O)ccc2Oc2cccc(NS(=O)(=O)c3ccccc3C#N)c2)c2cc[nH]c2c1=O` [Example 55, 2-cyano-N-{3-[2-(6-methyl-7-oxo-6,7-dihydro-1H-pyrrolo[2,3-c]pyridin-4-yl)-4-(methylsulfonyl)phenoxy]phenyl}benzenesulfonamide]: the EC50 came out at 393 nM.

The record behind these values is patent US10131657B2, “Bromodomain inhibitors” (AbbVie Inc., priority 2013, dated 2018).
